Measured values from ChEMBL document CHEMBL1201862, “PubChem BioAssay data set” (2004).
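Each compound was tested at five concentrations against cells in 96-well plates for 48 hours. GI50 is the concentration that inhibits growth by half.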 Active and inactive are the calls of the source. No stated cut-off is given here; in the data, active = GI50 up to about 1.1 µM and inactive = higher.

Legend:
Experiment in all cases: growth of human tumour cells (NCI), 48 h
[1] = system: UACC-257
[2] = system: DU-145
[3] = system: M14
[4] = system: SF-268
[5] = system: NCI-H460
[6] = system: UO-31
[7] = system: BT-549
[8] = system: SNB-19
[9] = system: HCT-116
[10] = system: T47D
[11] = system: Hs-578T
[12] = system: OVCAR-3
[13] = system: KM12
[14] = system: SK-MEL-5
[15] = system: PC-3
[16] = system: CAKI-1
[17] = system: HT-29
[18] = system: NCI-H226
[19] = system: MDA-MB-231

CC(=O)/C(=C\NC(=S)Nc1ccc(S(N)(=O)=O)cc1)C(=O)Nc1ccccc1C
GI50 [1]: 71.6 µM (inactive) | GI50 [2]: 57.7 µM (inactive) | GI50 [3]: 37.8 µM (inactive) | GI50 [4]: 99.8 µM (inactive) | GI50 [5]: 27 µM (inactive) | GI50 [6]: 32.4 µM (inactive) | GI50 [7]: 33.9 µM (inactive) | GI50 [8]: 84.3 µM (inactive) | GI50 [9]: 40.5 µM (inactive) | GI50 [10]: 28.7 µM (inactive) | GI50 [11]: 61.8 µM (inactive) | GI50 [12]: 64.7 µM (inactive) | GI50 [13]: 43.3 µM (inactive) | GI50 [14]: 44 µM (inactive) | GI50 [15]: 38.2 µM (inactive) | GI50 [16]: 37.8 µM (inactive) | GI50 [17]: 45.2 µM (inactive) | GI50 [18]: 60.3 µM (inactive) | GI50 [19]: 34.2 µM (inactive)

Cc1ccc2c(C(=O)c3c(C)n(CCN4CCOCC4)c4ccccc34)cccc2c1
GI50 [1]: 16.3 µM (inactive) | GI50 [2]: 27.5 µM (inactive) | GI50 [3]: 16.3 µM (inactive) | GI50 [4]: 11.7 µM (inactive) | GI50 [5]: 21.1 µM (inactive) | GI50 [6]: 23.2 µM (inactive) | GI50 [7]: 14 µM (inactive) | GI50 [8]: 33.9 µM (inactive) | GI50 [9]: 7.18 µM (inactive) | GI50 [10]: 17.2 µM (inactive) | GI50 [11]: 4.14 µM (inactive) | GI50 [12]: 3.54 µM (inactive) | GI50 [13]: 16.3 µM (inactive) | GI50 [14]: 0.581 µM (active) | GI50 [15]: 11.9 µM (inactive) | GI50 [16]: 25.1 µM (inactive) | GI50 [17]: 11.2 µM (inactive) | GI50 [18]: < 0.01 µM (active) | GI50 [19]: 17.3 µM (inactive)

CCOC(=O)c1cc([N+](=O)[O-])c(Sc2ncnc3nc[nH]c23)c([N+](=O)[O-])c1
GI50 [1]: 7.28 µM (inactive) | GI50 [2]: 10.2 µM (inactive) | GI50 [3]: 2.31 µM (inactive) | GI50 [4]: 4.5 µM (inactive) | GI50 [5]: 7.5 µM (inactive) | GI50 [6]: 2.62 µM (inactive) | GI50 [7]: 6.32 µM (inactive) | GI50 [8]: 17.1 µM (inactive) | GI50 [9]: 1.87 µM (inactive) | GI50 [10]: 2.96 µM (inactive) | GI50 [11]: 9.64 µM (inactive) | GI50 [12]: 1.39 µM (inactive) | GI50 [13]: 9.2 µM (inactive) | GI50 [14]: 10.7 µM (inactive) | GI50 [15]: 9.82 µM (inactive) | GI50 [16]: 2.37 µM (inactive) | GI50 [17]: 3.06 µM (inactive) | GI50 [18]: 5.61 µM (inactive) | GI50 [19]: 4.92 µM (inactive)

Oc1ccc2oc3c(O)c4ccccc4cc3c2c1
GI50 [1]: 52 µM (inactive) | GI50 [2]: 3.27 µM (inactive) | GI50 [3]: 3.49 µM (inactive) | GI50 [4]: 5.87 µM (inactive) | GI50 [5]: 23.5 µM (inactive) | GI50 [6]: 0.695 µM (active) | GI50 [7]: 5.61 µM (inactive) | GI50 [8]: 83.4 µM (inactive) | GI50 [9]: 0.296 µM (active) | GI50 [10]: 20.3 µM (inactive) | GI50 [11]: 23.2 µM (inactive) | GI50 [12]: 3.53 µM (inactive) | GI50 [13]: 2.22 µM (inactive) | GI50 [14]: 2.85 µM (inactive) | GI50 [15]: 4.06 µM (inactive) | GI50 [16]: 5.32 µM (inactive) | GI50 [17]: 17.5 µM (inactive) | GI50 [19]: 12.8 µM (inactive)

c1ccc2c(c1)Nc1nc3nonc3nc1N2
GI50 [1]: > 100 µM (inactive) | GI50 [2]: > 100 µM (inactive) | GI50 [3]: > 100 µM (inactive) | GI50 [4]: > 100 µM (inactive) | GI50 [5]: > 100 µM (inactive) | GI50 [6]: > 100 µM (inactive) | GI50 [7]: > 100 µM (inactive) | GI50 [8]: > 100 µM (inactive) | GI50 [9]: > 100 µM (inactive) | GI50 [10]: > 100 µM (inactive) | GI50 [11]: > 100 µM (inactive) | GI50 [13]: > 100 µM (inactive) | GI50 [14]: > 100 µM (inactive) | GI50 [15]: > 100 µM (inactive) | GI50 [16]: > 100 µM (inactive) | GI50 [17]: > 100 µM (inactive) | GI50 [18]: > 100 µM (inactive) | GI50 [19]: > 100 µM (inactive)

N#Cc1cc(N(CCCl)CCCl)c([N+](=O)[O-])cc1[N+](=O)[O-]
GI50 [1]: > 100 µM (inactive) | GI50 [2]: 32.4 µM (inactive) | GI50 [3]: > 100 µM (inactive) | GI50 [4]: > 100 µM (inactive) | GI50 [5]: 18.6 µM (inactive) | GI50 [6]: > 100 µM (inactive) | GI50 [7]: > 100 µM (inactive) | GI50 [8]: > 100 µM (inactive) | GI50 [9]: > 100 µM (inactive) | GI50 [10]: 11.4 µM (inactive) | GI50 [11]: > 100 µM (inactive) | GI50 [12]: > 100 µM (inactive) | GI50 [13]: > 100 µM (inactive) | GI50 [14]: > 100 µM (inactive) | GI50 [15]: > 100 µM (inactive) | GI50 [16]: 11.1 µM (inactive) | GI50 [17]: > 100 µM (inactive) | GI50 [19]: > 100 µM (inactive)
